According to the METLIN SMRT retention time set (Domingo-Almenara et al. 2019):

Experiment: gradient 5% acetonitrile 3 min, to 50% in 2 min, to 85% in 15 min, held 3 min, 100 µL/min
Details: column: Zorbax Extend-C18 2.1 x 50 mm; eluents: water / acetonitrile, 0.1% formic acid
Summary of the method: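 Mixtures of ~100 pure standards were chromatographed on a Zorbax Extend-C18 column (2.1 × 50 mm, 1.8 μm) at 100 μL/min using water and acetonitrile, each with 0.1% formic acid. Detection used a quadrupole time-of-flight mass spectrometer in positive and negative ionization mode, and data collection spanned 3 months. Retention time was obtained from adduct peaks picked computationally and each checked manually.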

| SMILES | RP-LC retention time [s] |
| --- | --- |
| CCCN1CCN(C(=O)c2ccc(CS(=O)c3ccccc3Cl)o2)CC1 (configuration not stated) | 593 |
| c1ccc(CN2CCc3c(sc4ncnc(N5CCOCC5)c34)C2)cc1 | 740 |
| CN(C)c1ccc(CCCNC(=O)Cc2ccc(Cl)cc2)cc1 | 604 |
| Cc1nc(-c2csc(S(=O)(=O)N3CCC(C(=O)NC(C)Cc4ccco4)CC3)c2)no1 (configuration not stated) | 843 |
| CC(C)S(=O)(=O)N1CCCC(Cn2cc(COc3ccc4c(c3)CCC4)nn2)C1 (configuration not stated) | 595 |
| O=S(=O)(c1cccn2c(SCc3ccccc3F)nnc12)N1CCCC1 | 803 |
| c1cnc2c(c1)ccc1ncccc12 | 674 |
| CCOC(=O)c1nc(Nc2ccc(Cl)cc2)c2ccccc2n1 | 957 |
| COc1ccc(C)cc1NC(=O)NCC(c1cccnc1)c1cn(C)c2ccccc12 (configuration not stated) | 734 |
| CCOC(=O)c1c(C)[nH]c(C(=O)N2CCC(CC(=O)NCc3ccccc3Cl)CC2)c1C | 813 |
| CC(C)NC(=O)c1ccc(Cn2c(SCC#N)nc3cc4c(cc3c2=O)OCO4)cc1 | 759 |
| Cc1cc(N2CCN(S(=O)(=O)c3cccc(C(F)(F)F)c3)CC2)nc(NC2CCCCC2)n1 | 890 |
| Cc1ccccc1Cn1nc2c(S(=O)(=O)N3CCOCC3)cccn2c1=O | 794 |
| Cc1cc(C(=O)NCc2ccco2)c2c(C)nn(-c3ccccc3Cl)c2n1 | 860 |
| Cc1cn(C)c(CC(=O)NCc2cccs2)c1C(=O)O | 693 |
| COc1ccc(Cn2nc3ccc(S(=O)(=O)N4CCCC4)cn3c2=O)cc1 | 827 |
| CCCNC(=O)N1CCCC1c1nc(-c2ccc(OC)cc2)no1 (configuration not stated) | 758 |
| CC(=O)N1CCc2cc(-c3ccc(C(=O)NCCN4CCCCC4)cc3)ccc21 | 616 |
| CC(C)(C)NC(=O)N(Cc1ccsc1)CC(F)(F)F | 925 |
| Cc1nc(N)n(CC(=O)NCc2ccc(F)cc2)c(=O)c1C | 842 |
| CCN(CC)c1ccc(C(=O)N2CCC(c3cc(N)on3)CC2)cc1 | 605 |
| CSc1cccc(NC(=O)Cn2c(C)nc3c(sc4nc(-c5ccccc5)ccc43)c2=O)c1 | 1100 |
| Cc1ccc(C(=O)N2CCC(c3nc(-c4ccccc4)no3)C2)s1 (configuration not stated) | 949 |

| SMILES | RP-LC retention time [s] |
| --- | --- |
| Cc1cccc(-c2nc3ccccn3c2NC(=O)Nc2cc(F)ccc2F)c1 | 715 |
| CCCc1nnc(NC(=O)c2ccc3[nH]c(C)cc(=O)c3c2)s1 | 607 |
| CCOc1ccc(C(O)CN2CCN(c3ccccn3)CC2)cc1 (configuration not stated) | 560 |
| Cc1ccccc1NC(=O)C1(C)Oc2cccnc2NC1=O (configuration not stated) | 673 |
| CCN1CCN(C2CCN(C(=O)c3cc(C)cc(C)c3)CC2)C1=O | 728 |
| O=C(c1cc2c(s1)CCC(C(=O)N1CCN(c3ccccn3)CC1)C2)N1CCCC1 (configuration not stated) | 600 |
| COCCOC(=O)c1c(C)oc2ccc(OC(=O)N(C)C)cc12 | 830 |
| CCNC(=O)c1n[nH]c2c1CN(C(=O)c1ccc3c(c1)OCO3)CC2 | 634 |
| COc1cc(C(=O)Nc2nnc(SCc3nnc(-c4ccccc4)o3)s2)cc(OC)c1OC | 871 |
| Cc1ccc(-c2coc(-c3ccc(NC(=O)C(C)(C)C)cc3)n2)cc1 | 1220 |
| Nc1ccc(-c2ccc3ccccc3n2)cc1 | 619 |
| O=C(NCCCN1CCOCC1)c1nc2ccccn2c1-c1ccc(Cl)cc1 | 629 |
| O=C(Cn1c(=O)n(-c2ccccc2)c2ncccc21)NC1CCCCCC1 | 845 |
| O=C(COc1ccccc1)N1CCc2nc(-c3ccc(Cl)cc3)ncc2C1 | 848 |
| COc1ccc(-c2cn3ccn(-c4ccc(Cl)cc4)c(=O)c3n2)cc1OC | 887 |
| COc1ccc(-c2cc3n(n2)CCCN(C(=O)NCc2ccco2)C3)cc1 | 743 |
| CCOc1ccccc1-c1nc(-c2cn(-c3cccc(F)c3)nn2)no1 | 936 |
| Cc1cccc(N2CCN(Cc3nc(-c4ccc(N5CCCC(C)C5)nc4)no3)CC2)c1C (configuration not stated) | 1260 |
| O=c1c(NCc2ccc(Cl)cc2)nccn1-c1ccc2c(c1)OCO2 | 923 |
| COc1ccc(Cl)cc1NC(=O)C1(C)Oc2cccnc2NC1=O (configuration not stated) | 798 |
| COC(=O)c1cccc(NS(=O)(=O)c2cc3n(c2)CCN(C)C3=O)c1 | 683 |
| CCN(CC)C(=O)c1ccc(-c2nc3cc(NS(=O)(=O)c4ccccc4)ccc3n2C)cc1 | 671 |
| Cc1ccc(-c2cc(C(=O)N3CCN(Cc4ccc5c(c4)OCO5)CC3)c(C)[nH]2)cc1C | 718 |

| SMILES | RP-LC retention time [s] |
| --- | --- |
| COc1ccc(Cl)cc1N1CC(c2nc(-c3ccccc3F)no2)CC1=O (configuration not stated) | 943 |
| Cc1cc(C)cc(NC(=O)NCCc2cn(CC(C)C)c3ncccc23)c1 | 905 |
| COc1ccc(-n2c(C)nc3ccc(NC(=O)c4cccc([N+](=O)[O-])c4C)cc3c2=O)cc1 | 779 |
| COc1cccc(NC(=O)c2c(C)oc3nc(C)nc(N4CCCC4)c23)c1 | 743 |
| CC(=C/c1ccccc1)/C=C1/NC(=S)NC1=O | 880 |
| Cc1nc(N2CCN(c3ncccn3)CC2)nc2c1C(=O)CC(c1ccccc1O)C2 (configuration not stated) | 969 |
| COc1cccc2c1ccn2CCNC(=O)C1CC(=O)N(c2n[nH]c3ccccc23)C1 (configuration not stated) | 722 |
| CC1CCN(C(=O)C2c3ccccc3CCN2C(=O)C(C)C)CC1 (configuration not stated) | 883 |
| CCOc1ccccc1NC(=O)C1CCCN(S(=O)(=O)c2ccc(OC)c(C)c2)C1 (configuration not stated) | 1080 |
| CCN(c1ccc(F)cc1)S(=O)(=O)c1cc2n(c1)CCCNC2=O | 721 |
| COC(=O)CSc1nnc(CNC(=O)c2ccccc2F)n1Cc1ccccc1 | 683 |
| Cc1nc(N(C)C)cc(N2CCN(C(=O)c3cccc(Br)c3)CC2)n1 | 656 |
| CC(C)c1ccc(-n2nc(N3CCN(C(=O)c4cc5ccccc5[nH]4)CC3)ccc2=O)cc1 | 998 |
| O=C(Nc1ccc(OCc2nnc(-c3ccc(F)cc3)o2)cc1)c1cccnc1 | 720 |
| CC1(C)CC(=O)c2cn(-c3ccccc3)c(=O)c(C(=O)NCc3cccs3)c2C1 | 924 |
| CCC(=O)Nc1ccc(CCc2nc3ccc(C(=O)NC(C)CCc4ccccc4)cc3[nH]2)cc1 (configuration not stated) | 714 |
| CCn1c(=O)c2c(C(=O)N3CCN(c4ccccn4)CC3)cc(=O)n(CC)c2n(C)c1=O | 617 |
| Cc1ccc(NC(=O)N2CCc3nc[nH]c3C2)cc1C | 606 |
| CCc1noc(CN2N=C(C(=O)N3CCC(C)CC3)S(=O)(=O)c3ccc(C)cc32)n1 | 954 |
| CCc1ccc(NC(=O)N2CCC3(CC2)NC(=O)c2ccc(Cl)cc2N3CC)cc1 | 968 |
| COc1ccc(-c2coc3cc(OC(=O)N(C)C)cc(O)c3c2=O)cc1OC | 858 |
